US7179460B2, “Bacterial composition and its use” (priority 2002, dated 2007)

Tested on: Bifidobacterium lactis PTA-4802
Assay: Antibiotic sensitivity profile (NCCLS M11-A5 agar dilution MIC)
Type: cell-based
Conditions: MRS + cysteine agar; sensitivity of strain PTA-4802 to the antibiotic

| Molecule | Antibiotic Sensitivity (S/I/R) |
| --- | --- |
| CC1(C)S[C@@H]2[C@H](NC(=O)Cc3ccccc3)C(=O)N2[C@H]1C(=O)O [Penicillin G] | S (MIC <4 ug/ml = Sensitive (S)) |
| Gentamicin | R (MIC >64 ug/ml = Resistant (R)) |
| Neomycin | R (MIC >64 ug/ml = Resistant (R)) |
| Polymyxin B | R (MIC >64 ug/ml = Resistant (R)) |
